Earlier results, collected in US5084274A, “Inhibition of arterial thrombotic occlusion or thromboembolism” (Scripps Clinic and Research Foundation, priority 1987, dated 1992).

Test system: acute arterial thrombosis
Settings: used alone or in combination

heparin
Response of acute complex arterial thrombosis (in words): unresponsive
